Assay results as given in paper PMC13197777, “Distinct 2-phenylimidazo[1,2-a]pyridine derivatives that inhibit breast cancer cell proliferation identified as AHR ligands” (iScience, 2026).
≈ marks a conversion by molar mass, not a printed value.

Experiments:
hERα = target: T1, hERα (Homo sapiens, UniProt P03372); test: ER/ERE luciferase reporter assay in HELN hERα cells; type: cell-based; details: 10 nM–10 μM compound, with E2, 24 h
T1 construct: expressed in transfected cells; host or cells: HeLa (HELN hERα)
T1 sequence (P03372 1-595): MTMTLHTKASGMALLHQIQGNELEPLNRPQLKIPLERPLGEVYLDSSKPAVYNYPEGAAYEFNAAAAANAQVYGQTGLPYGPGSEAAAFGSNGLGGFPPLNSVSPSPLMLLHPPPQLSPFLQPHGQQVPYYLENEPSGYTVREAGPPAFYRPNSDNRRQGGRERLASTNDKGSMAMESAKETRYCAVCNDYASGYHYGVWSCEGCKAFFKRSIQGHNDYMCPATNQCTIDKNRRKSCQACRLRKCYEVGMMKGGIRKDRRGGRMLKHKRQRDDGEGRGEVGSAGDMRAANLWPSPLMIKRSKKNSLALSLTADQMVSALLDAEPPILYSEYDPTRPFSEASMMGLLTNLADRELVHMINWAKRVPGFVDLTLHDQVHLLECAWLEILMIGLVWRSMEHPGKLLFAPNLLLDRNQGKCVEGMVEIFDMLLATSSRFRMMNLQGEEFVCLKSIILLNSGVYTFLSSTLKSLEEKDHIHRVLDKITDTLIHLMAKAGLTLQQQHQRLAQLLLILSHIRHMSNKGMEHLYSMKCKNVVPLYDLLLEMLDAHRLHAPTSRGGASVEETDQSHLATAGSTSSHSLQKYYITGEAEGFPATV
From the text: (§1) To characterize the chemical induced AHR activity, we used the already established HAHLH reporter cell lines obtained by stably expression of HeLa cells with the dioxin-responsive gene XRE(TnGCGTG)3-tata-luciferase-Luc-hygromycin plasmid.[29] The reporter HELN hERα cell line was obtained by transfecting human HeLa cells with the ERE-responsive gene ERE-βGlobin-luciferase-Luc-neomycin and the pSG5-hERα-puromycin plasmids as previously described.[59] To determine the action of the chemical on AHR and hERα activity, cells were seeded at a density of 50,000 cells per well in 96-well white opaque tissue culture plates (Greiner CellStar) in 150 μL of Dulbecco’s Modified Eagle Medium: Nutrient Mixture F-12 (DMEM/F- 12) without phenol red and 1 g/L glucose and supplemented with 5% stripped fetal bovine serum, 100 units/mL of penicillin, 100 μg/mL of streptomycin (test medium). Twenty-four hours later, chemicals to be tested were added at 4x concentration in culture medium, and cells were incubated at 37 °C for 8 h (HAhLH cells) or 24 h (HELN hERα cells). At the end of the incubation period, culture medium was replaced with test medium containing 0.3 mM luciferin and luciferase activity was measured for 2 s in intact living cells using a MicroBeta Wallac luminometer (PerkinElmer). Tests were performed in quadruplicate at 4x concentration in the same medium in at least 4 independent experiments. Results were expressed as % of the maximal luciferase activity. […] Effective concentration (ECs) for a given compound, EC50 is defined as the concentration inducing 50% of its maximal effect. The EC50 values were calculated including the adjustment for the basal activity of the cell line.

AHR = target: T2, AHR (Homo sapiens, UniProt P35869); test: AHR luciferase reporter assay in HAHLH cells; type: cell-based; details: 8 h; for EC50: % of maximal luciferase activity with dioxin 10 nM, read-out: EC50 AHR transactivation
T2 construct: endogenous in cells; host or cells: HAHLH (HeLa with XRE-luciferase reporter)
T2 sequence (P35869 11-848): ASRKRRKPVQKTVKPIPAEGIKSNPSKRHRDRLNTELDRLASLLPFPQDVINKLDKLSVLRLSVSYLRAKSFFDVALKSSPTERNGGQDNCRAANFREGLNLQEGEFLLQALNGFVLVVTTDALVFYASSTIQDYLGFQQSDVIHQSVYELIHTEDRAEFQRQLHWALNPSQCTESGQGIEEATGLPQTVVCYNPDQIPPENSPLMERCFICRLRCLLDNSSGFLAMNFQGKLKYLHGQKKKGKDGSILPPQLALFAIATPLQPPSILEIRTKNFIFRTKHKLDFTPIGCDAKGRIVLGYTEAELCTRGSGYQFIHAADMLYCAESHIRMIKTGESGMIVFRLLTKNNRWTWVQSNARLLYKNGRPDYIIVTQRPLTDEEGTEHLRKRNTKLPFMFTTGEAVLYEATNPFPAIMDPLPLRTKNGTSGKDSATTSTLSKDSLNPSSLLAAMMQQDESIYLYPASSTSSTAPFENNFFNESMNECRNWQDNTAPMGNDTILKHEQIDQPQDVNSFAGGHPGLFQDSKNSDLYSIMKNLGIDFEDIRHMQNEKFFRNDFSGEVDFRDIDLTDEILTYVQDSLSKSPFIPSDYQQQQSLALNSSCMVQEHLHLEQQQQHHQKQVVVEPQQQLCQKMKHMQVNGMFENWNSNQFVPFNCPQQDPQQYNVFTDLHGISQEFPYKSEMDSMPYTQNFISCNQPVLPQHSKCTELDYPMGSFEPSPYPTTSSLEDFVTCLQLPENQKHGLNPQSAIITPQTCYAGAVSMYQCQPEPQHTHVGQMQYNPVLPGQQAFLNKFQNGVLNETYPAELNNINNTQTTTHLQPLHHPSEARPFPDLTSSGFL
From the text: as §1

[1] = Thermodynamic solubility, shake-flask method; type: physicochemical; details: HEPES buffer 0.1 M pH 7.4, 21 °C
Method: Thermodynamic solubility was determined using the classical shake-flask method. The solid compound (4 mg) was suspended in 1 mL HEPES buffer (0.1 M, pH 7.4) and constantly stirred at 21 °C for 24 h. […] The injection volume for all analyses was 50 μL and the flow rate was kept at 1 mL/min during the analysis. A mobile phase gradient method was applied as a method with 5% solvent B to 99% solvent B in 5 min, followed by 3 min of elution at 99% solvent B.
Calibration curve was generated from a serial dilution of the respective analyte in DMSO at 2.5, 1.25, 0.625, 0.313, 0.156, 0.078, 0.039 mM starting from a 10 mM DMSO stock solution. Subsequently, 2 μL of each dilution was added to 198 μL of a buffer (HEPES, 0.1 M, pH 7.4)/acetonitrile mixture in a 3:2 ratio yielding final dilutions of 25, 12.5, 6.25, 3.125, 1.562, 0.781, 0.391 μM. These were then subjected to HPLC analysis as described above.
Using the results from the linear regression of the internal calibration measurement points (Figure S5) and the mean AUC values from the saturated aqueous solutions, the concentration C of the analytes in the saturated aqueous solution, expressed in μM, were calculated using Equation 2:(Equation 1) AUC=Slope·C+YIntercept (Equation 2) C=AUC−YIntercept/Slope

[2] = system: AHR target genes CYP1A1, CYP1B1, ALDH3A1; details: human, 16 h, 1 µM
[3] = system: ER+ MCF-7, ZR75–1, and T47D breast cancer cells; design: method as in PMID 37520743; details: previously identified ref 17; cited from earlier work

SMILES | transcription activity of ERα (reporter) (hERα) | AHR transcriptional activity (reporter), in words (AHR) | EC50 (AHR) | solubility thermodynamic at 24 h [1] | solubility thermodynamic at 24 h ([1]; HEPES buffer, 21 °C, pH 7.4, aqueous buffer, thermodynamic from solid) | expression of AHR target genes (RT-PCR) [2] | Inhibition of Proliferation [3]
Fc1ccc(-c2cn3cc(C(F)(F)F)cc(Cl)c3n2)cc1 [X15695] | reduced | potency that surpassed that of the classical AHR ligand dioxin | 0.14 nM | 3 µM (≈ 0.944 µg/mL) | 2.99 µM (≈ 0.941 µg/mL) | enhanced the transcriptional activity of the AHR target genes in both MCF-7 and T47D cells | Yes
Cc1cc(Cl)c2nc(-c3ccccc3)cn2c1 [X19728] | reduced | only modest enhancement | 3.94 nM | – | – | – | Yes
Cc1cc(Cl)c2nc(-c3ccc(F)cc3)cn2c1 [X19724] | reduced | only modest enhancement | 1.37 nM | – | – | – | Yes
